# Key:
# Format in all cases: biochemical
# [1] = Dose–response curve of purified […] with R-β-phenylalanine
# Protocol: (§1) Fig. 4 Engineering ligand specificity of GrsA-PheA for generating […]s. a The selectivity-conferring code of Phe and Leu A domains. b–f Dose–response curve of purified […]s with increasing concentrations of ligands in 100 mM Tris-HCl buffer (pH=7.5). All data shown are means ± S.D. (n = 3 biologically independent samples). g A series of […] reactions was tested to show the […]’s specificity with 20 proteinogenic amino acids. The values on the heatmap represent the ΔF/F0 value normalized to each […]’s maximal ΔF/F0 value ((ΔF/F0)/maximal ΔF/F0). The concentrations of 20 amino acids were 100 μM. The color indicates the average value of three independent biological replicates after 15 min. All data shown are means ± S.D. (n = 3 biologically independent samples). Source data are provided as a Source data file.
# (§2) The study conducted dose–response curve, substrate specificity, and fluorescent spectrum analyses in 100-mM Tris buffer (pH = 7.5), while pH stability experiments were performed in 100-mM Tris buffer at three different pH values (6.5, 7.5, and 8.5) at room temperature. […] protein at a concentration of 0.75 μM, various small molecule concentrations, 1 mM ATP, and 2.5 mM MgCl2 were used in the experiments. Fluorescent signals were detected using a Microplate Reader (Synergy H4, Bio Tek) at an excitation/emission wavelength of 460 nm/510 nm or 480 nm/510 nm. The dose-response curve was determined immediately after the addition of the analyte. The total duration of the measurement was 15 min, with readings taken at one-minute intervals. The dose-response curve was plotted using the fluorescence values obtained after achieving stability in the fluorescence signal. The dose-response curves were fitted using the logistic model LOGISTIC5 available in Origin 2021, which could provide a more adequate fit to asymmetric dose-response data[62],[63]. Excitation spectra were scanned from 300 to 540 nm with a step size of 5 nm, and the emission wavelength was set to 560 nm. Emission spectra were scanned from 470 to 700 nm with a step size of 5 nm, and the excitation wavelength was set to 450 nm. The thermal stability of […] was analyzed using the UNcle multifunctional protein stability analysis system. Measurements were performed in 20 mM MOPS buffer with 2 mM DTT at a sample concentration of 1 mg/mL. Absolute fluorescence quantum yields were measured using an absolute photoluminescence quantum yield spectrometer (FS5, Edinburgh).
# [2] = Substrate (ligand) specificity of […]s; settings: Supplementary Fig. 3 c; substrate specificity
# Protocol: as §1
# Ligand specificity is an important biosensors feature. Generally, the NRPS A domains have high specificity for their substrates because they are the first “gatekeeper” of NRPSs and ensure that the correct monomers are activated and thioesterified[32],[33]. Therefore, we speculated that this property would be inherited by our […]s because the ligand-binding pockets were unchanged during the […] creation process. Twenty proteinogenic amino acids were used to test the ligand specificity of […]s. […] We also investigated the dependence of […]s on Mg^2+ and ATP (Supplementary Fig. 4). […] This phenomenon corroborates with the distinct conformational changes observed in Hinge A of Nt4CL2 (Mg^2++ATP) (PDB ID: 5BSM) and Nt4CL2 (Coumaroyl-AMP) (PDB ID: 5BST) reported in the literature (Supplementary Fig. 4k), where the direction of motion in hinge A differs. […] During the determination of quantum yield, we observed that the absolute quantum yield of the […] variants ranged from 0.3 to 0.6 upon addition of the respective substrates, which show no significant difference with that reported in literature. The specific values are provided in Supplementary Table 2.
# as §2
# GECFINDER-Phe3 = target: T1, GECFINDER-Phe3 (Aneurinibacillus migulanus, UniProt P0C061); experiment: Fluorescence dose-response of purified cpEGFP sensors (0.75 uM) in 100 mM Tris-HCl pH 7.5, room temperature, 1 mM ATP, 2.5 mM MgCl2; excitation 400, 460 or 480 nm by sensor, emission 510 nm; logistic five-parameter fit.; settings: n = 3
# T1 construct: gene grsA; GrsA-PheA-PCP; cpEGFP inserted in hinge B, linkers VF-QS
# T1 sequence (P0C061 1-617): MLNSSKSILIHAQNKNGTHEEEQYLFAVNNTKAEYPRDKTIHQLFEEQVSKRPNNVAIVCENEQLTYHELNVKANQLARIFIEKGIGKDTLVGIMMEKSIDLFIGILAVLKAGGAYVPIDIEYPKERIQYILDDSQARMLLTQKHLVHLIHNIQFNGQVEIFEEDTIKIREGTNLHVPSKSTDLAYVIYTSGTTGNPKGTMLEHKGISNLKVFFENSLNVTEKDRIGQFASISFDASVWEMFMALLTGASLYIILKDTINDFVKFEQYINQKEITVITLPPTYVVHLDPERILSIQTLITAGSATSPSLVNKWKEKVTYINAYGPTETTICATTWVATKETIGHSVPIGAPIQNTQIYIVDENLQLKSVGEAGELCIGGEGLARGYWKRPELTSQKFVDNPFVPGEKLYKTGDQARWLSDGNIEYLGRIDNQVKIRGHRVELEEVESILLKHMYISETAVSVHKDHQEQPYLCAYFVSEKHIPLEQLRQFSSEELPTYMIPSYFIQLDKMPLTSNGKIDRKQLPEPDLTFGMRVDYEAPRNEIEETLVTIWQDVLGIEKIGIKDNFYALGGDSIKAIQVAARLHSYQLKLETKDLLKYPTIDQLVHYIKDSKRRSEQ
# Protocol: Fig. 3 Dose–response curves and fluorescence spectrums of […]s. a, c, e, g, i, k Dose–response curve of purified […]s with increasing concentrations of ligand in 100 mM Tris-HCl buffer (pH=7.5). The normalized ΔF/F0 value increased after ligand binding. All data shown are mean ± S.D. (n = 3 biologically independent samples). b, d, f, h, j, l The fluorescence spectra of […]s changed as the ligand concentration increased. All data shown are mean ± S.D. (n = 3 biologically independent samples). Source data are provided as a Source data file.
# as §2
# GECFINDER-SβF = experiment: Fluorescence dose-response of purified binding-pocket-engineered sensors (0.75 uM) in 100 mM Tris-HCl pH 7.5, room temperature, 1 mM ATP, 2.5 mM MgCl2, excitation 460 or 480 nm, emission 510 nm; logistic five-parameter fit.; settings: n = 3
# Protocol: as §1, §2
# [3] = Dose–response curve of purified […]s with S-β-phenylalanine
# Protocol: as §1, §2
# GECFINDER-Tyr = target: T2, GECFINDER-Tyr (Aneurinibacillus migulanus, UniProt P0C061, W239S); experiment: Fluorescence dose-response of purified binding-pocket-engineered sensors (0.75 uM) in 100 mM Tris-HCl pH 7.5, room temperature, 1 mM ATP, 2.5 mM MgCl2, excitation 460 or 480 nm, emission 510 nm; logistic five-parameter fit.; settings: n = 3
# T2 construct: gene grsA
# Protocol: as §1, §2
structure (smiles),measurement,setting,value
N[C@H](CC(=O)O)c1ccccc1 [R-β-Phe],"AVE, dose-response Fig. 4 f",[1]; substrate R-β-Phe 0.0001 μM,-0.0001175
same,"AVE, dose-response Fig. 4 f",[1]; substrate R-β-Phe 0.001 μM,-0.003533
same,"AVE, dose-response Fig. 4 f",[1]; substrate R-β-Phe 0.01 μM,-3.814e-5
same,"AVE, dose-response Fig. 4 f",[1]; substrate R-β-Phe 0.1 μM,0.008066
same,"AVE, dose-response Fig. 4 f",[1]; substrate R-β-Phe 1 μM,0.06811
same,"AVE, dose-response Fig. 4 f",[1]; substrate R-β-Phe 5 μM,0.06226
same,"AVE, dose-response Fig. 4 f",[1]; substrate R-β-Phe 10 μM,0.1204
same,"AVE, dose-response Fig. 4 f",[1]; substrate R-β-Phe 50 μM,0.3026
same,"AVE, dose-response Fig. 4 f",[1]; substrate R-β-Phe 100 μM,0.3923
same,"AVE, dose-response Fig. 4 f",[1]; substrate R-β-Phe 500 μM,0.5534
same,"AVE, dose-response Fig. 4 f",[1]; substrate R-β-Phe 1000 μM,0.5949
same,"AVE, dose-response Fig. 4 f",[1]; substrate R-β-Phe 2000 μM,0.5892
same,"fluorescence response of GECFINDER to each substrate, AVE of 3 repeats",[2],0.4936
"N[C@@H](CC(=O)O)c1ccccc1 [S-β-Phe, S-β-phenylalanine]",EC50,GECFINDER-Phe3,13.6 ± 1.28 µM
same,EC50,GECFINDER-SβF,7.4 ± 0.45 µM
N[C@@H](CC(=O)O)c1ccccc1 [S-β-Phe],"AVE, dose-response Fig. 4 b",[3]; substrate S-β-Phe 0.0001 μM,-0.0002792
same,"AVE, dose-response Fig. 4 b",[3]; substrate S-β-Phe 0.001 μM,-0.0008239
same,"AVE, dose-response Fig. 4 b",[3]; substrate S-β-Phe 0.01 μM,-0.003663
same,"AVE, dose-response Fig. 4 b",[3]; substrate S-β-Phe 0.1 μM,-0.01739
same,"AVE, dose-response Fig. 4 b",[3]; substrate S-β-Phe 1 μM,0.02113
same,"AVE, dose-response Fig. 4 b",[3]; substrate S-β-Phe 10 μM,0.3498
same,"AVE, dose-response Fig. 4 b",[3]; substrate S-β-Phe 50 μM,0.6956
same,"AVE, dose-response Fig. 4 b",[3]; substrate S-β-Phe 100 μM,0.8621
same,"AVE, dose-response Fig. 4 b",[3]; substrate S-β-Phe 500 μM,0.9305
same,"AVE, dose-response Fig. 4 b",[3]; substrate S-β-Phe 1000 μM,0.8832
same,"AVE, dose-response Fig. 4 b",[3]; substrate S-β-Phe 5000 μM,0.7695
same,"AVE, dose-response Fig. 4 b",[3]; substrate S-β-Phe 10000 μM,0.7514
same,"AVE, dose-response Fig. 4 f",[3]; substrate S-β-Phe 0.0001 μM,-0.0001186
same,"AVE, dose-response Fig. 4 f",[3]; substrate S-β-Phe 0.001 μM,-0.005617
same,"AVE, dose-response Fig. 4 f",[3]; substrate S-β-Phe 0.01 μM,0.008482
same,"AVE, dose-response Fig. 4 f",[3]; substrate S-β-Phe 0.1 μM,0.09012
same,"AVE, dose-response Fig. 4 f",[3]; substrate S-β-Phe 1 μM,0.4944
same,"AVE, dose-response Fig. 4 f",[3]; substrate S-β-Phe 10 μM,1.228
same,"AVE, dose-response Fig. 4 f",[3]; substrate S-β-Phe 50 μM,1.751
same,"AVE, dose-response Fig. 4 f",[3]; substrate S-β-Phe 100 μM,1.939
same,"AVE, dose-response Fig. 4 f",[3]; substrate S-β-Phe 500 μM,2.2005
same,"AVE, dose-response Fig. 4 f",[3]; substrate S-β-Phe 1000 μM,2.208
same,"AVE, dose-response Fig. 4 f",[3]; substrate S-β-Phe 5000 μM,2.26
same,"AVE, dose-response Fig. 4 f",[3]; substrate S-β-Phe 10000 μM,2.258
same,"fluorescence response of GECFINDER to each substrate, AVE of 3 repeats",[2],2.126
"N[C@@H](Cc1ccc(O)cc1)C(=O)O [Tyr, tyrosine]",EC50,GECFINDER-Phe3,225 ± 17.9 µM
same,EC50,GECFINDER-Tyr,89.8 ± 6.71 µM

# Reference: publication PMC10590383, “Repurposing conformational changes in ANL superfamily enzymes to rapidly generate biosensors for organic and amino acids” (Nature Communications, 2023)
